Measurements as given in patent publication US20220144812A1, “QUINOLINE DERIVATIVES AND THEIR USE FOR THE TREATMENT OF CANCER” (Epizyme, Inc., priority 2019, published 2022).
Like-named read-outs stand apart in the source and are kept apart here.

What was measured:
[1] = test system: H3K18Ac in HB-CLS-2 cells; experiment: H3K18AC in-cell western (ICW) assay; type: cell-based; conditions: H3K18Ac in-cell western; read-out: CREBBP ICW IC50
Summary of the method: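 HB-CLS-2 cells seeded 16–24 hours before 2 hr compound treatment at 37° C, 5% CO2, then methanol-fixed. H3K18Ac detected with rabbit monoclonal primary (overnight, 4° C) and 800CW anti-rabbit secondary; DRAQ5 stained DNA. Plates imaged at 700 and 800 nm for integrated intensity; IC50 in μM.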

647V cells = experiment: High throughput proliferation (HTP) assay; type: cell-based; conditions: high throughput proliferation, read-out: CREBBP HTP IC50
Summary of the method: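 Exponentially growing 647V cells in DMEM with 15% FBS were treated in triplicate with increasing compound concentrations at 37° C, 5% CO2. Viable cell number was read by CellTiter-Glo luminescence on day 7; IC50 in micromolar.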

EP300 (P300(1048-1664)) = molecular target: T1, EP300 (P300(1048-1664)) (Homo sapiens, UniProt Q09472); experiment: Biochemical assay for EP300, SAMDI; conditions: EP300, SAMDI; read-out: EP300 Biochemistry IC50
T1 construct: P300(1048-1664)
T1 sequence (Q09472 1048-1664): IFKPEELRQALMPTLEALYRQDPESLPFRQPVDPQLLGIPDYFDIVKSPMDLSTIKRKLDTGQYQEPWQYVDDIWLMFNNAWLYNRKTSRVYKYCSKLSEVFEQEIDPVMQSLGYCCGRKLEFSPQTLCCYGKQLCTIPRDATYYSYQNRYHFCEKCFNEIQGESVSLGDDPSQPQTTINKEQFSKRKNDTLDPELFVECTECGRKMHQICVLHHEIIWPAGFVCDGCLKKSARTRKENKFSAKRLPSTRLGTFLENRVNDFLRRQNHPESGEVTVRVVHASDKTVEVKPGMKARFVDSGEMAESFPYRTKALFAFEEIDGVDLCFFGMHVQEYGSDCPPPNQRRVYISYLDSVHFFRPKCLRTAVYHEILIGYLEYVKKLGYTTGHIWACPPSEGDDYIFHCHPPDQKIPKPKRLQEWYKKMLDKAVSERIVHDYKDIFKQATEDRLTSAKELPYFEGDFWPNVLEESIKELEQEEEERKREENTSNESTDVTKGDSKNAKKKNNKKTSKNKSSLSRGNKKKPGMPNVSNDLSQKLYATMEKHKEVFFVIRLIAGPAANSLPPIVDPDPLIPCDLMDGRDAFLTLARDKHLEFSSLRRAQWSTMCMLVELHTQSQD
From the text: The following example describes materials and methods relating to a biochemical assay for EP300. IC50 values (micromolar (μM)) are summarized in Table 1, Table 2, and Table 3 under the column labeled: “EP300 Biochemistry IC50 (micromolar).”

CREBBP (1084-1701) = molecular target: T2, CREBBP (1084-1701) (Homo sapiens, UniProt Q92793); experiment: Biochemical assay for CREBBP (1084-1701), SAMDI; conditions: SAMDI, read-out: CREBBP Biochemistry IC50
T2 construct: measured in the following biochemical assay using CREBBP (1084-1701); purchased
Summary of the method: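 CREBBP (1084-1701) preincubated with compound 30 min at RT, then substrate mix (biotin-H3 11-25 K14R/K23R peptide, acetyl-CoA) added for 30 min at RT. Reaction stopped with formic acid, neutralised with sodium bicarbonate. Peptide acetylation read by SAMDI mass spectrometry to derive IC50.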

T2 sequence (Q92793 1084-1701): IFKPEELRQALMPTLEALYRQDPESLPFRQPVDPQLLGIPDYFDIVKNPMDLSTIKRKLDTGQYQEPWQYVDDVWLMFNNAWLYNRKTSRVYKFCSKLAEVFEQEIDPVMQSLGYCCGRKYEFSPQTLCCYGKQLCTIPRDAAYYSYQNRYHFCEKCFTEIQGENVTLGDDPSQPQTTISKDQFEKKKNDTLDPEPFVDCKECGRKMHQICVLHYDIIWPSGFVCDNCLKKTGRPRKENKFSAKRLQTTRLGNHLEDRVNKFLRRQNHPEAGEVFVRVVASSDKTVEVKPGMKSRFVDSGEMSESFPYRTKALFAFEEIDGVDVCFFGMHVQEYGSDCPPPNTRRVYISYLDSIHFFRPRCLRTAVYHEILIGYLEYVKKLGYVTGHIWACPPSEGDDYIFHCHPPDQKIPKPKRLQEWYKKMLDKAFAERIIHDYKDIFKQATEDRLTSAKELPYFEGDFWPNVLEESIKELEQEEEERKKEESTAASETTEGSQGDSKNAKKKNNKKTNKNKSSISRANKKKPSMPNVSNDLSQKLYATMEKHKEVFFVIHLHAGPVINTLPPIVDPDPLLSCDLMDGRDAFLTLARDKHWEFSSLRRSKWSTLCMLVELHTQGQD

Row | Compound | IC50 [1] | IC50 (EP300 (P300(1048-1664))) | IC50 (CREBBP (1084-1701)) | IC50 (647V cells; Homo sapiens, 647-V) | IC50 (647V cells)
1 | CCn1ncc(CN(C)C(=O)c2cc(-c3cn(CCNC)cn3)nc3ccc(Cl)cc23)c1C [Compound 73] | 1 µM | 0.36 µM | 0.82 µM | – | 1.3 µM
2 | CCn1ncc(CN(C)C(=O)c2cc(-c3ccc(NC(=O)CNC)c(C)n3)nc3ccc(Cl)cc23)c1C [Compound 74] | 1 µM | 1.1 µM | 2.1 µM | 1.5 µM | –
3 | CCn1ncc(CN(C)C(=O)c2nc(-c3cc(C(=O)NCCCN4CCCC4)[nH]n3)nc3ccc(Cl)cc23)c1C [Compound 75] | 1 µM | 0.054 µM | 0.13 µM | 0.51 µM | –
4 | CCn1ncc(CN(C)C(=O)c2nc(-c3ccnc(N)c3)nc3ccc(Cl)cc23)c1C [Compound 77] | 1.1 µM | 1.3 µM | 1.6 µM | 0.76 µM | –
5 | CCn1ncc(CN(C)C(=O)c2nc(-c3cc(C)cc(NC4CCOCC4)c3)nc3ccc(Cl)cc23)c1C [Compound 78] | 1.1 µM | 0.066 µM | 0.067 µM | 1.2 µM | –
6 | CCn1ncc(CN(C)C(=O)c2nc(-c3cc(C(=O)NCCN4CCCC4)[nH]n3)nc3ccc(Cl)cc23)c1C [Compound 80] | 1.2 µM | 0.69 µM | 1.2 µM | 1.4 µM | –
7 | CCn1ncc(CN(C)C(=O)c2nc(-c3cccc(Cl)c3)nc3c(CNC)cc(Cl)cc23)c1C [Compound 85] | 1.3 µM | 0.4 µM | 0.18 µM | 1.3 µM | –
8 | CCn1ncc(CN(C)C(=O)c2nc(-c3ccnc(Cl)c3)nc3ccc(NC)cc23)c1C [Compound 87] | 1.4 µM | 0.88 µM | 0.84 µM | 1.4 µM | –
9 | CCn1ncc(CN(C)C(=O)c2cc(-c3csc(C)n3)nc3ccc(Cl)cc23)c1C [Compound 90] | 1.6 µM | 0.21 µM | 0.34 µM | – | 1.5 µM
10 | CCn1ncc(CN(C)C(=O)c2cc(-c3ccnc(N)c3)nc3ccc(Cl)cc23)c1C [Compound 94] | 1.7 µM | 1.5 µM | 2.1 µM | 1.5 µM | –

Continued, in another order:

Row | IC50 [1] | IC50 (EP300 (P300(1048-1664))) | IC50 (CREBBP (1084-1701)) | Compound | IC50 (647V cells; Homo sapiens, 647-V) | IC50 (647V cells)
11 | 0.88 µM | 0.61 µM | 0.1 µM | CCn1ncc(CN(C)C(=O)c2nc(-c3cc(C)cc(CNC)c3)nc3ccc(Cl)cc23)c1C [Compound 69] | 0.42 µM | –
12 | 1.1 µM | 0.18 µM | 0.028 µM | CCn1ncc(CN(C)C(=O)c2nc(-c3ccc(OCCN)c(C)c3)nc3ccc(Cl)cc23)c1C [Compound 76] | 0.84 µM | –
13 | 1.2 µM | 2.1 µM | 0.67 µM | CCn1ncc(CN(C)C(=O)c2nc(-c3ccc(NCCNC)c(C)n3)nc3ccc(Cl)cc23)c1C [Compound 79] | 0.85 µM | –
14 | 1.2 µM | 0.46 µM | 0.1 µM | CCn1ncc(CN(C)C(=O)c2nc(-c3cc(Cl)cc(CNC)c3)nc3ccc(Cl)cc23)c1C [Compound 82] | 0.58 µM | –
15 | 1.3 µM | 2.5 µM | 0.82 µM | CCn1ncc(CN(C)C(=O)c2nc(-c3ccc(OCCCNC)c(OC)c3)nc3ccc(Cl)cc23)c1C [Compound 84] | 0.85 µM | –
16 | 1.6 µM | 1 µM | 0.18 µM | CCn1ncc(CN(C)C(=O)c2nc(-c3ccc4nc[nH]c4c3Cl)nc3ccc(COC)cc23)c1C [Compound 89] | 1.2 µM | –
17 | 1.7 µM | 0.068 µM | 0.14 µM | CCn1ncc(CN(C)C(=O)c2nc(-c3ccc(OCCCN(C)C(=O)OC(C)(C)C)c(C)c3Cl)nc3ccc(Cl)cc23)c1C [Compound 93] | 1.2 µM | –
18 | 1.9 µM | 1.5 µM | 0.74 µM | CCn1ncc(CN(C)C(=O)c2nc(-c3ccc(OCCOC)cc3Cl)nc3ccc(Cl)cc23)c1C [Compound 96] | 1.8 µM | –
